Measurements from ChEMBL document CHEMBL2169870, “A novel aminopeptidase N inhibitor developed by virtual screening approach” (Bioorg Med Chem Lett, 2012).
Activity calls are given as the source filed them. No cut-off for these calls is given here.

Legend:
Aminopeptidase N = target: T1, Aminopeptidase N (Sus scrofa, UniProt P15145); assay: Inhibition of porcine kidney microsome aminopeptidase using L-Leu-p-nitroanilide as substrate after 30 mins
T1 sequence (P15145 whole entry): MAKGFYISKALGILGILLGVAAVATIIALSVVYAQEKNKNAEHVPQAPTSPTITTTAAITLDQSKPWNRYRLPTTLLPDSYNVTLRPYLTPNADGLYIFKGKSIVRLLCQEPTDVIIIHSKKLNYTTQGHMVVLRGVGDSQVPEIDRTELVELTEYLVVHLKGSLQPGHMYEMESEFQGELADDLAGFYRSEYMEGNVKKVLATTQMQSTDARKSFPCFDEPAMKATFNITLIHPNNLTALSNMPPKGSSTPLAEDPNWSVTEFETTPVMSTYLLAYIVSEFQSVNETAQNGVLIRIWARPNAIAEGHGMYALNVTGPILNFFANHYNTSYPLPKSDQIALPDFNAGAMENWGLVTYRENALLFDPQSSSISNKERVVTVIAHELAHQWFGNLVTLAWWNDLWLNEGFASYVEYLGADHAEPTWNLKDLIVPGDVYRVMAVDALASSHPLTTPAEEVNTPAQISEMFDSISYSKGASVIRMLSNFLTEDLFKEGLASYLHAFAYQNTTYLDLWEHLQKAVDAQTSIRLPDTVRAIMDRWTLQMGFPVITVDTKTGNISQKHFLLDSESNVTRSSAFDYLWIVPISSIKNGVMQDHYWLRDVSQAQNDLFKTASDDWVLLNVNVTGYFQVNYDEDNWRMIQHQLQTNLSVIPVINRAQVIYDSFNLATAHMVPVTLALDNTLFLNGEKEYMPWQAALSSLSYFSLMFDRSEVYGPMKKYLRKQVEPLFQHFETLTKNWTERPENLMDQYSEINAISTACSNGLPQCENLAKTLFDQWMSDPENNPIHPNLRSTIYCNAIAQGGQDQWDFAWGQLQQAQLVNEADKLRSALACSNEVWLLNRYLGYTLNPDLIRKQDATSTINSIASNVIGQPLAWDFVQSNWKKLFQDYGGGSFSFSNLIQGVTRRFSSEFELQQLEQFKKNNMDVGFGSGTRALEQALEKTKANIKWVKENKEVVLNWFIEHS

MDA-MB-231 [1] = assay: Antimetastatic activity in human MDA-MB-231 cells assessed as inhibition of cell invasion at 20 uM after 20 hrs by matrigel assay; format: functional, cell-based
MDA-MB-231 [2] = assay: Induction of apoptosis in human MDA-MB-231 cells assessed as early apoptotic cells at 20 uM after 24 hrs using annexin-V-FITC staining by flow cytometry (reference value: 1.69%); format: functional
MDA-MB-231 [3] = assay: Induction of apoptosis in human MDA-MB-231 cells assessed as late apoptotic cells at 20 uM after 24 hrs using annexin-V-FITC staining by flow cytometry (reference value: 1.69%); format: functional
MDA-MB-231 [4] = assay: Cell cycle arrest in human MDA-MB-231 cells assessed as accumulation at G2 phase at 20 uM after 48 hrs using propidium iodide staining by flow cytometry (reference value: 18.35%); format: functional
MDA-MB-231 [5] = assay: Cell cycle arrest in human MDA-MB-231 cells assessed as accumulation at S phase at 20 uM after 48 hrs using propidium iodide staining by flow cytometry (reference value: 33.25%); format: functional
MDA-MB-231 [6] = assay: Cell cycle arrest in human MDA-MB-231 cells assessed as accumulation at G1 phase at 20 uM after 48 hrs using propidium iodide staining by flow cytometry (reference value: 48.40%); format: functional
NIH3T3 = assay: Cytotoxicity against mouse NIH/3T3 cells after 48 hrs by MTT assay; format: cell-based
NB-4 [7] = assay: Cytotoxicity against human NB4 cells after 48 hrs by MTT assay
ES2 = assay: Cytotoxicity against human ES2 cells after 48 hrs by MTT assay
HL-60 [8] = assay: Cytotoxicity against human HL60 cells after 48 hrs by MTT assay
HeLa [9] = assay: Cytotoxicity against human HeLa cells after 48 hrs by MTT assay
MCF7 [10] = assay: Cytotoxicity against human MCF7 cells after 48 hrs by MTT assay
SK-OV-3 [11] = assay: Cytotoxicity against human SKOV3 cells after 48 hrs by MTT assay
MDA-MB-231 [12] = assay: Antimetastatic activity in human MDA-MB-231 cells assessed as inhibition of cell invasion at 300 uM after 20 hrs by matrigel assay; format: functional, cell-based
MDA-MB-231 [13] = assay: Induction of apoptosis in human MDA-MB-231 cells assessed as early apoptotic cells at 300 uM after 24 hrs using annexin-V-FITC staining by flow cytometry (reference value: 1.69%); format: functional
MDA-MB-231 [14] = assay: Induction of apoptosis in human MDA-MB-231 cells assessed as late apoptotic cells at 300 uM after 24 hrs using annexin-V-FITC staining by flow cytometry (reference value: 1.69%); format: functional
MDA-MB-231 [15] = assay: Cell cycle arrest in human MDA-MB-231 cells assessed as accumulation at G2 phase at 300 uM after 48 hrs using propidium iodide staining by flow cytometry (reference value: 18.35%); format: functional
MDA-MB-231 [16] = assay: Cell cycle arrest in human MDA-MB-231 cells assessed as accumulation at S phase at 300 uM after 48 hrs using propidium iodide staining by flow cytometry (reference value: 33.25%); format: functional
MDA-MB-231 [17] = assay: Cell cycle arrest in human MDA-MB-231 cells assessed as accumulation at G1 phase at 300 uM after 48 hrs using propidium iodide staining by flow cytometry (reference value: 48.40%); format: functional
A549 = assay: Cytotoxicity against human A549 cells after 48 hrs by MTT assay; details: A549, 48 h
PC-3 = assay: Cytotoxicity against human PC3 cells after 48 hrs by MTT assay; details: PC-3, 48 h
SK-OV-3 [18] = assay: Cytotoxicity against human SKOV3 cells after 48 hrs by MTT assay; details: SK-OV-3, 48 h
K562 = assay: Cytotoxicity against human K562 cells after 48 hrs by MTT assay; details: K562, 48 h
NB-4 [19] = assay: Cytotoxicity against human NB4 cells after 48 hrs by MTT assay; details: NB-4, 48 h
HL-60 [20] = assay: Cytotoxicity against human HL60 cells after 48 hrs by MTT assay; details: HL-60, 48 h
HeLa [21] = assay: Cytotoxicity against human HeLa cells after 48 hrs by MTT assay
[22] = Cytotoxicity against human ES2 cells after 48 hrs by MTT assay; details: ES-2, 48 h
HCT-116 = assay: Cytotoxicity against human HCT116 cells after 48 hrs by MTT assay; details: HCT-116, 48 h
MCF7 [23] = assay: Cytotoxicity against human MCF7 cells after 48 hrs by MTT assay; details: MCF7, 48 h
MDA-MB-231 [24] = assay: Cytotoxicity against human MDA-MB-231 cells after 48 hrs by MTT assay; details: MDA-MB-231, 48 h

Structure (SMILES): C=CCN/C(S)=N/C=C1C(=O)NC(=O)NC1=O
- IC50 (Aminopeptidase N): 65.9 µM

Structure (SMILES): O=C1NC(=O)C(=NNc2cc([N+](=O)[O-])ccc2O)C(=O)N1
- IC50 (Aminopeptidase N): > 1000 µM

Structure (SMILES): NC(=O)c1ccccc1NC(=O)c1ccccc1C(=O)O
- IC50 (Aminopeptidase N): 66.3 µM

Structure (SMILES): NS(=O)(=O)c1ccc(-n2cccc2/C=C2/C(=O)NN(c3ccc(Cl)cc3)C2=O)cc1
- IC50 (Aminopeptidase N): > 1000 µM

Structure (SMILES): CC[C@H](N)[C@H](O)c1ccc(OC)cc1
- IC50 (Aminopeptidase N): > 1000 µM

Structure (SMILES): Nn1c(COc2ccccc2)n[nH]c1=S
- IC50 (Aminopeptidase N): 424 µM

Structure (SMILES): Nc1nc2c(ncn2S(=O)(=O)c2cccc(C(=O)O)c2)c(=O)[nH]1
- IC50 (Aminopeptidase N): 202 µM

Structure (SMILES): NNC(=O)/C(=C/c1ccc([N+](=O)[O-])cc1)NC(=O)c1ccc(Br)cc1
- IC50 (Aminopeptidase N): 438 µM

Structure (SMILES): O=C1NC(=O)C(=NNc2cccc(C(=O)O)c2)C(=O)N1
- IC50 (Aminopeptidase N): > 1000 µM

Structure (SMILES): O=C(CN1C(=O)C2(OCCO2)c2cc(Br)ccc21)NO
- Activity (MDA-MB-231 [1]): Active
- Activity (MDA-MB-231 [2]): 4.99%
- Activity (MDA-MB-231 [3]): 5.35%
- Activity (MDA-MB-231 [4]): 3.83%
- Activity (MDA-MB-231 [5]): 2.9%
- Activity (MDA-MB-231 [6]): 93.27%
- Activity (NIH3T3; mouse, nih3t3, 48 h): Dose-dependent effect
- Activity (NB-4 [7]): Dose-dependent effect
- Activity (ES2): Dose-dependent effect
- Activity (HL-60 [8]): Dose-dependent effect
- Activity (HeLa [9]): Dose-dependent effect
- Activity (MCF7 [10]): Dose-dependent effect
- Activity (SK-OV-3 [11]): Dose-dependent effect

Structure (SMILES): CCOC(=O)/C(N)=N/NS(=O)(=O)c1ccc(C)cc1
- IC50 (Aminopeptidase N): 321 µM

Structure (SMILES): CC(C)C[C@H](NC(=O)[C@@H](O)[C@H](N)Cc1ccccc1)C(=O)O [UBENIMEX]
- Activity (MDA-MB-231 [12]): Active
- Activity (MDA-MB-231 [13]): 8.54%
- Activity (MDA-MB-231 [14]): 2.14%
- Activity (MDA-MB-231 [15]): 7.03%
- Activity (MDA-MB-231 [16]): 15.06%
- Activity (MDA-MB-231 [17]): 77.91%
- IC50 (A549): 513 µM
- IC50 (NIH3T3; Mus musculus, NIH3T3, 48 h): > 1000 µM
- IC50 (PC-3): 399 µM
- IC50 (SK-OV-3 [18]): > 1000 µM
- IC50 (K562): 136 µM
- IC50 (NB-4 [19]): 221 µM
- IC50 (HL-60 [20]): 86.4 µM
- IC50 (HeLa [21]): 155 µM
- IC50 [22]: 74.5 µM
- IC50 (HCT-116): > 1000 µM
- IC50 (MCF7 [23]): > 1000 µM
- IC50 (MDA-MB-231 [24]): 50.6 µM

Structure (SMILES): NC(=S)NNC(=O)c1ccccc1C(=O)O
- IC50 (Aminopeptidase N): > 1000 µM

Structure (SMILES): O=C1Nc2ccccc2/C1=C1/SC(=S)N(NC(=O)c2cccc(O)c2)C1=O
- IC50 (Aminopeptidase N): 170 µM

Structure (SMILES): Cc1[nH]cnc1/C=N/NC(N)=S
- IC50 (Aminopeptidase N): > 1000 µM

Structure (SMILES): COc1cc(/C=C2/C(=O)NC(=O)N(Cc3ccc(F)cc3)C2=O)cc(OC)c1O
- IC50 (Aminopeptidase N): 78.9 µM

Structure (SMILES): O=C(O)COc1ccc(/C=N/n2c(COc3ccccc3)nc3ccccc3c2=O)cc1
- IC50 (Aminopeptidase N): 188 µM

Structure (SMILES): Cc1cc(/C=N/Nc2ccc([N+](=O)[O-])cc2[N+](=O)[O-])c(C)n1-c1ccc(S(N)(=O)=O)cc1
- IC50 (Aminopeptidase N): > 1000 µM

Structure (SMILES): CC(=O)NC(=S)NNC(=O)COc1ccc(Br)cc1
- IC50 (Aminopeptidase N): 227 µM
